From US20230091047A1 (priority 2019, published 2023) come the findings set out here.

Molecules are shown by their SMILES.

Series [1] has as its system HBV (HepG2.117 cell line, inducibly HBV producing). Briefly: Anti-HBV activity: intracellular HBV DNA by real-time PCR in HepG2.117 cells after 3 days of treatment. Type of series: cell-based, hepatitis B virus. The settings on record: Hepatitis B virus, HepG2.117, 72 h, HepG2.117 cells, 3 days of treatment, intracellular HBV DNA by real-time PCR; mean value; read-out: EC50 (μM, mean value). In outline: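 First, HBV replication is induced in HepG2.117 cells by doxycycline absence. Next, serially diluted compound is added for 3 days. Finally, intracellular HBV DNA is quantified by HBV-specific real-time PCR.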
Background: Real-time PCR tracks product formation cycle by cycle.

The nature of the next series: in vitro. In kind it is cell-based. Conditions: human, HepG2 or HepG2.117 cells, 3-days incubation (unmarked values), ATPlite; mean value. In outline: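 Luminescent ATP quantitation served as the viability endpoint following a 3- or 4-day incubation with test compounds.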
On the technique in general: ATP-based viability assays read luminescence as a measure of living cells.

By EC50 is commonly meant the concentration needed to bring the measured effect to its halfway point. In general, CC50 refers to the concentration at which the toxic effect on the cells reaches its halfway point. For `CCOC(=O)c1ccc(-n2c(NCc3ccc(OC)cc3)nc3c(c2=O)CCN(C(=O)c2ccc(Cl)c(Cl)c2)C3)cc1` [Compound C121, ethyl 4-[7-(3,4-dichlorobenzoyl)-2-{[(4-methoxyphenyl)methyl]amino}-4-oxo-5,6,7,8-tetrahydropyrido[3,4-d]pyrimidin-3(4H)-yl]benzoate], in series [1], the EC50 was 1.55 µM. In addition, in “in vitro”, the CC50 at 3 days was greater than 50 µM.

Turning to `CC(C)Nc1nc2c(c(=O)n1-c1ccncc1)CCN(C(=O)c1ccc(Cl)c(Cl)c1)C2` [Compound C122, 7-(3,4-dichlorobenzoyl)-2-[(propan-2-yl)amino]-3-(pyridin-4-yl)-5,6,7,8-tetrahydropyrido[3,4-d]pyrimidin-4(3H)-one], the EC50 in series [1] is 1.44 µM. The compound also showed a CC50 at 3 days in the series “in vitro” greater than 50 µM.

As to `COc1ccc(CNc2nc3c(c(=O)n2-c2ccncc2)CCN(C(=O)c2ccc(Cl)c(Cl)c2)C3)cc1` [Compound C123, 7-(3,4-dichlorobenzoyl)-2-{[(4-methoxyphenyl)methyl]amino}-3-(pyridin-4-yl)-5,6,7,8-tetrahydropyrido[3,4-d]pyrimidin-4(3H)-one], in series [1], the EC50 was found to be 1.23 µM. In “in vitro”, this compound registered a CC50 at 3 days of 24.4 µM.

Regarding `COc1ccc(CNc2nc3c(c(=O)n2-c2ccc(C(=O)O)cc2)CCN(C(=O)c2ccc(Cl)c(Cl)c2)C3)cc1` [Compound C124, 4-[7-(3,4-dichlorobenzoyl)-2-{[(4-methoxyphenyl)methyl]amino}-4-oxo-5,6,7,8-tetrahydropyrido[3,4-d]pyrimidin-3(4H)-yl]benzoic acid], in series [1], the EC50 worked out at 36.8 µM. For the same compound, in “in vitro”, the CC50 at 3 days was greater than 50 µM.

In the case of `COc1ccc(CNc2nc3c(c(=O)n2-c2ccc(Br)cc2)CCN(C(=O)c2ccc(Cl)c(Cl)c2)C3)cc1` [Compound C125, 3-(4-bromophenyl)-7-(3,4-dichlorobenzoyl)-2-{[(4-methoxyphenyl)methyl]amino}-5,6,7,8-tetrahydropyrido[3,4-d]pyrimidin-4(3H)-one], the EC50 in series [1] came out at 1.64 µM. The same compound yielded a CC50 at 3 days in “in vitro” greater than 50 µM.

As for `COc1ccc(CNc2nc3c(c(=O)n2-c2ccc(C(C)=O)cc2)CCN(C(=O)c2ccc(Cl)c(Cl)c2)C3)cc1` [Compound C126, 3-(4-acetylphenyl)-7-(3,4-dichlorobenzoyl)-2-{[(4-methoxyphenyl)methyl]amino}-5,6,7,8-tetrahydropyrido[3,4-d]pyrimidin-4(3H)-one], the EC50 in series [1] stood at 1.51 µM. In the series “in vitro”, this compound registered a CC50 at 3 days greater than 50 µM.

Regarding `CC(=O)c1ccc(-n2c(NC(C)C)nc3c(c2=O)CCN(C(=O)c2ccc(Cl)c(Cl)c2)C3)cc1` [Compound C127, 3-(4-acetylphenyl)-7-(3,4-dichlorobenzoyl)-2-[(propan-2-yl)amino]-5,6,7,8-tetrahydropyrido[3,4-d]pyrimidin-4(3H)-one], the EC50 in series [1] amounted to 1.28 µM. The CC50 at 3 days in “in vitro” is greater than 50 µM.

With `COc1ccc(CNc2nc3c(c(=O)n2-c2ccc(N4CCOCC4)cc2)CCN(C(=O)c2ccc(Cl)c(Cl)c2)C3)cc1` [Compound C128, 7-(3,4-dichlorobenzoyl)-2-{[(4-methoxyphenyl)methyl]amino}-3-[4-(morpholin-4-yl)phenyl]-5,6,7,8-tetrahydropyrido[3,4-d]pyrimidin-4(3H)-one], the EC50 in series [1] was determined as 1.06 µM. Moreover, in “in vitro”, the CC50 at 3 days was greater than 50 µM.

Turning to `CNC(=O)c1ccc(-n2c(NCc3ccc(OC)cc3)nc3c(c2=O)CCN(C(=O)c2ccc(Cl)c(Cl)c2)C3)cc1` [Compound C129, 4-[7-(3,4-dichlorobenzoyl)-2-{[(4-methoxyphenyl)methyl]amino}-4-oxo-5,6,7,8-tetrahydropyrido[3,4-d]pyrimidin-3(4H)-yl]-N-methylbenzamide], the EC50 in series [1] amounted to 0.44 µM. The compound further showed a CC50 at 3 days in the series “in vitro” of 44.4 µM.

As for `CC(C)Nc1nc2c(c(=O)n1-c1ccc(N3CCOCC3)cc1)CCN(C(=O)c1ccc(Cl)c(Cl)c1)C2` [Compound C130, 7-(3,4-dichlorobenzoyl)-3-[4-(morpholin-4-yl)phenyl]-2-[(propan-2-yl)amino]-5,6,7,8-tetrahydropyrido[3,4-d]pyrimidin-4(3H)-one], in series [1], the EC50 worked out at 0.48 µM. Moreover, in “in vitro”, the CC50 at 3 days is greater than 50 µM.

On to `COc1ccc(CNc2nc3c(c(=O)n2-c2ccc4ncoc4c2)CCN(C(=O)c2ccc(Cl)c(Cl)c2)C3)cc1` [Compound C131, 3-(1,3-benzoxazol-6-yl)-7-(3,4-dichlorobenzoyl)-2-{[(4-methoxyphenyl)methyl]amino}-5,6,7,8-tetrahydropyrido[3,4-d]pyrimidin-4(3H)-one], for which the EC50 in series [1] is 0.53 µM. In the series “in vitro”, this compound gave a CC50 at 3 days greater than 50 µM.

Regarding `CC(C)Nc1nc2c(c(=O)n1-c1ccc(S(C)(=O)=O)cc1)CCN(C(=O)c1ccc3occc3c1)C2` [Compound C132, 7-(1-benzofuran-5-carbonyl)-3-[4-(methanesulfonyl)phenyl]-2-[(propan-2-yl)amino]-5,6,7,8-tetrahydropyrido[3,4-d]pyrimidin-4(3H)-one], the EC50 in series [1] was 0.7 µM. Further, in the series “in vitro”, the CC50 at 3 days is greater than 50 µM.

Take `CC(C)Nc1nc2c(c(=O)n1-c1ccc(S(C)(=O)=O)cc1)CCN(C(=O)c1[nH]c3ccccc3c1Cl)C2` [Compound C133, 7-(3-chloro-1H-indole-2-carbonyl)-3-[4-(methanesulfonyl)phenyl]-2-[(propan-2-yl)amino]-5,6,7,8-tetrahydropyrido[3,4-d]pyrimidin-4(3H)-one]: in series [1], the EC50 came to 1.94 µM. Besides, the CC50 at 3 days in “in vitro” worked out at 28.3 µM.

Turning to `CC(C)Nc1nc2c(c(=O)n1-c1ccnnc1)CCN(C(=O)c1ccc(Cl)c(Cl)c1)C2` [Compound C134, 7-(3,4-dichlorobenzoyl)-2-[(propan-2-yl)amino]-3-(pyridazin-4-yl)-5,6,7,8-tetrahydropyrido[3,4-d]pyrimidin-4(3H)-one], the EC50 in series [1] worked out at 4.39 µM. Moreover, in “in vitro”, the CC50 at 3 days was greater than 50 µM.

As to `COc1ccc(CNc2nc3c(c(=O)n2-c2ccnnc2)CCN(C(=O)c2ccc(Cl)c(Cl)c2)C3)cc1` [Compound C135, 7-(3,4-dichlorobenzoyl)-2-{[(4-methoxyphenyl)methyl]amino}-3-(pyridazin-4-yl)-5,6,7,8-tetrahydropyrido[3,4-d]pyrimidin-4(3H)-one], in series [1], the EC50 is 1.13 µM. For the same compound, the CC50 at 3 days in the series “in vitro” is 23.3 µM.

As to `CC(C)Nc1nc2c(c(=O)n1-c1ccc(S(C)(=O)=O)cc1)CCN(C(=O)c1cc3cc(F)ccc3[nH]1)C2` [Compound C136, 7-(5-fluoro-1H-indole-2-carbonyl)-3-[4-(methanesulfonyl)phenyl]-2-[(propan-2-yl)amino]-5,6,7,8-tetrahydropyrido[3,4-d]pyrimidin-4(3H)-one], in series [1], the EC50 was 0.24 µM. Further, the cytotoxic concentration (CC50) at 3 days in the series “in vitro” is greater than 50 µM.

On to `CC(C)Nc1nc2c(c(=O)n1-c1ccc(S(C)(=O)=O)cc1)CCN(C(=O)c1cc3ccc(F)cc3[nH]1)C2` [Compound C137, 7-(6-fluoro-1H-indole-2-carbonyl)-3-[4-(methanesulfonyl)phenyl]-2-[(propan-2-yl)amino]-5,6,7,8-tetrahydropyrido[3,4-d]pyrimidin-4(3H)-one], for which the EC50 in series [1] turned out to be 0.3 µM. The same compound yielded a CC50 at 3 days in “in vitro” greater than 50 µM.

`CC(C)Nc1nc2c(c(=O)n1-c1ccc(S(C)(=O)=O)cc1)CCN(C(=O)c1ccn3nccc3c1)C2` [Compound C138, 3-[4-(methanesulfonyl)phenyl]-2-[(propan-2-yl)amino]-7-(pyrazolo[1,5-a]pyridine-5-carbonyl)-5,6,7,8-tetrahydropyrido[3,4-d]pyrimidin-4(3H)-one]: in series [1], the EC50 was 5.98 µM. The compound also yielded a CC50 at 3 days in “in vitro” greater than 50 µM.

Regarding `CC(C)Nc1nc2c(c(=O)n1-c1ccc(S(C)(=O)=O)cc1)CCN(C(=O)c1ccc3ccoc3c1)C2` [Compound C139, 7-(1-benzofuran-6-carbonyl)-3-[4-(methanesulfonyl)phenyl]-2-[(propan-2-yl)amino]-5,6,7,8-tetrahydropyrido[3,4-d]pyrimidin-4(3H)-one], in series [1], the half-maximal effective concentration (EC50) was determined as 11.2 µM. Besides, the half-maximal cytotoxic concentration (CC50) at 3 days in the series “in vitro” is greater than 50 µM.

Take `COc1ccc(CNc2nc3c(c(=O)n2-c2ccc(S(C)(=O)=O)cc2)C[C@H](C)N(C(=O)c2ccc(Cl)c(Cl)c2)C3)cc1` [Compound C140, (6S)-7-(3,4-dichlorobenzoyl)-3-[4-(methanesulfonyl)phenyl]-2-{[(4-methoxyphenyl)methyl]amino}-6-methyl-5,6,7,8-tetrahydropyrido[3,4-d]pyrimidin-4(3H)-one]: the EC50 in series [1] was 1.88 µM. The same compound registered a CC50 at 3 days in the series “in vitro” greater than 50 µM.

In the case of `COc1ccc(CNc2nc3c(c(=O)n2-c2ccc(-n4cccn4)cc2)CCN(C(=O)c2ccc(Cl)c(Cl)c2)C3)cc1` [Compound C143, 7-(3,4-dichlorobenzoyl)-2-{[(4-methoxyphenyl)methyl]amino}-3-[4-(1H-pyrazol-1-yl)phenyl]-5,6,7,8-tetrahydropyrido[3,4-d]pyrimidin-4(3H)-one], the EC50 in series [1] was 1.46 µM. The same compound returned a CC50 at 3 days in the series “in vitro” greater than 50 µM.

Turning to `CC(C)Nc1nc2c(c(=O)n1-c1ccc(-n3cccn3)cc1)CCN(C(=O)c1ccc(Cl)c(Cl)c1)C2` [Compound C144, 7-(3,4-dichlorobenzoyl)-2-[(propan-2-yl)amino]-3-[4-(1H-pyrazol-1-yl)phenyl]-5,6,7,8-tetrahydropyrido[3,4-d]pyrimidin-4(3H)-one], the EC50 in series [1] was 0.6 µM. Besides, the CC50 at 3 days in the series “in vitro” was greater than 50 µM.

For the compound `COc1ccc(CNc2nc3c(c(=O)n2-c2ccc(S(C)(=O)=O)cc2)C[C@@H](C)N(C(=O)c2ccc(Cl)c(Cl)c2)C3)cc1` [Compound C145, (6R)-7-(3,4-dichlorobenzoyl)-3-[4-(methanesulfonyl)phenyl]-2-{[(4-methoxyphenyl)methyl]amino}-6-methyl-5,6,7,8-tetrahydropyrido[3,4-d]pyrimidin-4(3H)-one], the EC50 in series [1] amounted to 0.31 µM. This compound showed a CC50 at 3 days in “in vitro” greater than 42 µM.
